In US10317393B2, “Alkynyl sugar analogs for labeling and visualization of glycoconjugates in cells” (Academia Sinica, priority 2007, dated 2019):

Tests used:
[1] = test system: Jurkat cells; experiment: Flow cytometry of cell surface labeling after click with biotin azide probe 6 and fluorescein-conjugated streptavidin; assay type: cell-based, human
Protocol: In another exemplary implementation, a method for labeling fucosylated glycoconjugates at the cell surface is disclosed. In one aspect, Jurkat cells are grown in the presence of derivatized alkynyl Fuc 1. After treatment, cells are subjected to CuAAC (click chemistry) to couple biotinylated azido probe 6 with any alkynyl Fuc-bearing glycoconjugates, and stained with fluorescein-conjugated streptavidin.
Labeling alkynyl Fuc-bearing cell surface glycoconjugates is illustrated in FIGS. 1A, 1B, 1C and 1D. FIGS. 1A, 1B, 1C and 1D show analysis of cells tagged with Fuc analogs analyzed by monitoring fluorescence intensity with flow cytometry after labeling with a biotin azide probe 6 and staining cells with fluorescein-conjugated streptavidin. […] Without being bound by theory, incorporation of the derivatized Fuc analogs into fucosylated glycoconjugates likely occurs via the Fuc salvage pathway.
It is now disclosed in one exemplary implementation of the disclosure that treating cells with derivatized alkynyl ManNAc 4 results in derivatized alkyne-bearing sialyl glycoconjugates. In one aspect of the method, cells are treated with 4 at various concentrations for one to 3 days. Modified sugar analogs and probes used in this disclosure are shown in Scheme 1. Tagging of the cell surface glycoconjugates by derivatized alkynyl ManNAc is illustrated in FIGS. 2A, 2B, 2C and 2D. FIGS. 2A, 2B, 2C and 2D show analysis of cells labeled with ManNAc analogs analyzed by monitoring fluorescence intensity with flow cytometry after clicking on the biotin azide probe 6 and staining cells with fluorescein-conjugated streptavidin. […] Compared with the MFI of controls, there was significant labeling on cells treated with derivatized alkynyl ManNAc 4, even at concentrations as low as 3 micromolar (15-fold increase). […] The optimal concentration of 4 for tagging sialyl glycoconjugates falls between 25 and 50 micromolar.
(§1) Jurkat cells were cultivated (2×10^6/10 ml) in RPMI medium 1640 supplemented with 10% FCS and various concentrations of peracetylated alkynyl sugars 1, 2, or 4 or native sugars 3 or 5, for 1-3 days at 37° C. Cells were then harvested, washed with 0.1% FCS/PBS, and resuspended (10^6 cells) in 100 microliters of click reaction solution (0.1 mM biotin probe 6 or fluorogenic probe 7/0.1 mM Tris-thiazoleamine catalyst/0.1 mM CuSO4/0.5 mM sodium ascorbate, in PBS). The reaction was incubated at room temperature for 30 min, and then the cells were washed twice with 0.1% FCS/PBS. Cells treated with biotin probe 6 were subsequently stained with fluorescein-conjugated streptavidin (0.5 microgram per sample in 50 microliters of 1% FCS/PBS) for 30 min at 4° C., and washed three times with 1% FCS/PBS. Data were acquired by BD LSR II with FACSDiva software, and were analyzed by CellQuestPro software (BD Biosciences). Detection of fluorescent adduct with probe 7 was monitored with a 408 nm laser and a 440/40 bandpass filter for excitation and emission, respectively.

[2] = test system: Jurkat cells; experiment: Cell growth analysis after treatment with sugar analogs (cell numbers counted); assay type: cell-based, human; conditions: for toxicity (growth rate): 3 days
Protocol: FIGS. 1A, 1B, 1C and 1D show analysis of cells labeled with Fuc analogs. […] Jurkat cells were grown in the presence of 200 micromolar each Fuc analog for 3 days before cell numbers were counted. The data represent the percentage of treated cells vs. untreated cells (n=4).
It is also disclosed how treatment with exogenous Fuc analog affects cell growth rate. […] In contrast, the addition of 200 micromolar azido Fuc 2 inhibits cell growth considerably, by 65% when compared with the untreated cells. […] Such toxicity may lead to global change in expression, therefore a nontoxic probe is preferable for accurate probing of glycoconjugate expression.
as §1

[3] = test system: Jurkat cells; experiment: Flow cytometry of cell surface labeling with fluorogenic coumarin probe 7; assay type: cell-based, human; conditions: 200 micromolar Fuc analogs or 25 micromolar ManNAc analogs, 3 days
Source text: FIGS. 3A and 3B show tagging of cell surface glycans by derivatized alkynyl sugar analogs and subsequent labeling with probe 3-azido-7-hydroxycoumarin 7. Shown is flow cytometry analysis of Jurkat cells tagged with 200 micromolar derivatized alkynyl Fuc 1 shown in FIG. 3A or 25 micromolar alkynyl-derivatized ManNAc 4 shown in FIG. 3B for 3 days. The fluorescence intensity was detected after labeling with a coumarin probe 7. Filled histogram, cells treated with control sugar analog 3 or 5; open histogram, cell treated with alkynyl-derivatized sugar 1 or 4.
Recently, another click-activated azido-derivatized fluorescent probe, based on coumarin, was reported in the literature. In one aspect of the disclosure, the fluorogenic probe, 3-azido-7-hydroxycoumarin 7, is used as the coupling partner for alkynyl tags on labeled glycoconjugates.
Jurkat cells were cultivated (2×10^6/10 ml) in RPMI medium 1640 supplemented with 10% FCS and various concentrations of peracetylated alkynyl sugars 1, 2, or 4 or native sugars 3 or 5, for 1-3 days at 37° C. […] Data were acquired by BD LSR II with FACSDiva software, and were analyzed by CellQuestPro software (BD Biosciences). Detection of fluorescent adduct with probe 7 was monitored with a 408 nm laser and a 440/40 bandpass filter for excitation and emission, respectively.

[4] = test system: cell extracts; experiment: Labeling and detection of glycoconjugates in cell extracts (SDS/PAGE, Western blot); assay type: cell-based; conditions: 200 micromolar Fuc or 25 micromolar ManNAc analogs, 3 days
Source text: Because the herein disclosed labeling system enables the identification of cellular glycoconjugates, it can also serve well in glyco-proteomic applications aimed at discovering unknown glycosylated targets for diagnostic and therapeutic purposes. […] Soluble lysate fractions are labeled with biotin probe 6, fluorogenic probe 7, or a standard azido-derivatized rhodamine probe used in proteomics before separating proteins by SDS/PAGE. […] Positive fluorescent signal was also detected in alkynyl positive protein lysate when labeled with fluorogenic 3-azido-7-hydroxycoumarin 7 and rhodamine probes (FIG. 6B and FIG. 11). […] Moreover, further processing, including a streptavidin/avidin enrichment or gel slice purification, will allow for comparative identification by proteomic mass spectrometry techniques of unknown glycoconjugates expressed at different cell status, for instance, un-differentiated verses differentiated cells, or normal verses cancer cells.
Cells were seeded at 3×10^6/8 ml per 10-cm dish and treated with control and test sugars (200 micromolar Fuc 3 vs. alkynyl derivatized Fuc 1, or 25 micromolar ManNAc 5 vs. alkynyl derivatized ManNAc 2) in growth medium at 37° C. […] Signal was developed with SuperSignal Chemiluminescent Substrate and detected by exposure to x-ray film. […] Rhodamine gels were analyzed.

For `C#CCCC(=O)N[C@@H]1C(OC(C)=O)O[C@H](COC(C)=O)[C@@H](OC(C)=O)[C@@H]1OC(C)=O` (some centres unmarked) [alkynyl ManNAc 4, 1,3,4,6-tetra-O-acetyl-N-4-pentynoylmannosamine], the “increase of MFI compared with controls” value ([1]; 3 micromolar) was 15 fold, the “dose dependency of glycan tagging” value ([1]; 3 days) was “Dose-dependent labeling” and the “fluorescence intensity / cell surface signal compared with control sugar-treated cells” value ([1]; biotin probe 6/fluorescein-streptavidin) was “specific signal on the cell surface”. The “toxicity (growth rate)” value ([2]; above 100 micromolar) was “more toxic”, the “toxicity to cells (summary statement)” value ([2]; at levels required for efficient labeling) was “not toxic” and the “toxicity (growth rate)” value ([2]; between 25 and 50 micromolar) was “little or no toxicity”. The “fluorescent labeling after reacting with 3-azido-7-hydroxycoumarin probe” value [3] was “significant fluorescent labeling” and the “labeling signal in proteins by Western blot or fluorescence” value [4] was “specific biotin-labeling signals”.
